Assays:
Format in all cases: cell-based
[1] = test system: SARS-COV-2 Omicron variant BA.4
[2] = test system: SARS-COV-2 Delta variant B.1.617.2
[3] = test system: SARS-COV-2 Omicron variant BA.5

SMILES	reduction in viral load [1]	reduction in viral load [2]	reduction in viral load [3]	SARS-CoV-2 replication fitness (viral gene copies in cell supernatant) [3]
CC(C)NCC(O)COc1cccc2ccccc12 (stereo not drawn) [Propranolol, 1-(isopropylamino)-3-(1-naphthyloxy)-2-propanol]	2-3 log10	2-3 log10	2-3 log10	–
CC(C)NCC(O)COc1ccc(CC(N)=O)cc1 (stereo not drawn) [atenolol]	–	–	–	didn't affect
CC(C)(C)NCC(O)COc1cccc2c1CC(O)C(O)C2 (stereo not drawn) [Nadolol]	–	–	–	didn't affect
CC(C)NCC(O)c1ccc(O)c(O)c1 (stereo not drawn) [isoproterenol]	–	–	–	didn't affect
